The assay relates to CEM cells HIV-1 protection, formazan growth assay. The assay can be described thus: NCI AIDS Antiviral Assay. Particulars: for pIC50: measured here: growth of uninfected CEM cells. The gist of the method: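 CEM (human) cells, HIV-1 infected vs uninfected, 5-point dosing, formazan growth read-out. Retest threshold 50% protection.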

The results in this text go back to PubChem BioAssay AID179 (DTP/NCI, 2004).

pEC50, pIC50: −log10 of the molar value. Calls of active or inactive are those of the source.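 How the source made its calls: active means compounds giving half or more protection of infected cells from virus-caused growth loss, again on retest; inactive means the rest.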 Where a SMILES comes first, the peptide text is derived from it.

Consider `CCC(CS(=O)(=O)O)[N+](=O)[O-]` (stereo not drawn), for which the pEC50 – broadly, the EC50 on a negative log10 scale, so that one unit is a factor of ten – was under 3.70 and the pIC50 (in general, the IC50 on a negative log10 scale, so that one unit is a factor of ten) is under 3.70. `N=c1oc2c(O)c(O)ccc2cc1C(N)=O`: the pEC50 is under 5.08 and the pIC50 is under 5.08.

`CCOC(=O)NC(NC(=O)OCC)C(NC(=O)OCC)NC(=O)OCC`: the pEC50 is under 3.70 and the pIC50 was under 3.70.

For the molecule `O=C1c2ccccc2C(=O)N1Cc1ccccc1-c1c2nc(c(-c3ccccc3CN3C(=O)c4ccccc4C3=O)c3ccc([nH]3)c(-c3ccccc3CN3C(=O)c4ccccc4C3=O)c3nc(c(-c4ccccc4CN4C(=O)c5ccccc5C4=O)c4ccc1[nH]4)C=C3)C=C2`, the pEC50 is under 5.38 and the negative logarithm of the IC50 (pIC50) was under 5.38. Take `CC1(CCC2C=CCC2)CCCNC1=S` (stereo not drawn): the pEC50 was 4.42 and the pIC50 was 4.05. `Cn1c2ccccc2c(=O)c2c([N+](=O)[O-])ccc(NCCN)c21`: the result was inactive. On the same count and under the same terms, the value for `O=C1Nc2ccccc2C12CCCC2` was “inactive”. On to `NCCCCC(NC(=O)C(CO)NC(=O)C(CO)NC(=O)CN)C(=O)NC(CO)C(=O)NC(CCCCN)C(=O)N1CCCC1C(=O)NC(CCCCN)C(=O)NC(CC(=O)O)C(N)=O` (stereo not drawn) (H-GSSKSKPKD-NH2; configuration not given here), for which the pEC50 is under 3.57 and the pIC50 is under 3.57.

As to `CC1(C)CCC(C)(C)c2cc(C(=O)Nc3ccc(C(=O)O)cc3)ccc21`, the outcome was inactive and the negative logarithm of the IC50 (pIC50) is 3.94. Take `C[C@@H]1C(=O)O[C@H]1[C@H](O)CO`: the pEC50 is under 3.70 and the pIC50 was under 3.70. For `S=c1sc(-c2ccc(Cl)cc2)nn1CSc1nc2ccccc2o1`, the pEC50 was under 3.70 and the negative-log IC50 (pIC50) is under 3.70. Consider `CC[C@@]1(OC(=O)CCC(=O)O)C(=O)OCc2c1cc1n(c2=O)Cc2cc3ccccc3nc2-1`, for which the pEC50 is under 5.00 and the pIC50 is 8.15.

With `C=C(Br)CNC(=O)Nc1ccccn1`, the pEC50 was under 3.70 and the pIC50 was under 3.70. `CCC(C)c1c(NC(=O)c2ccccc2)o[nH]c1=O` (stereo not drawn): the pEC50 was under 3.70 and the pIC50 is under 3.70.

Consider `Cc1cc(Cc2cc(C)c(NC(=O)C(=O)C3C(=O)NC(=S)NC3=O)c(C(C)C)c2)cc(C(C)C)c1NC(=O)C(=O)C1C(=O)NC(=S)NC1=O`, for which the result was inactive. For `Cc1cccc(N2C(=O)C3c4[nH]c5ccccc5c4C4CCC(C(C)(C)C)CC4C3C2=O)c1` (stereo not drawn), the pEC50 is under 3.70 and the negative-log IC50 (pIC50) is 4.41.

Regarding `CCCCNC(=O)/C(=C/c1ccc2c(c1)OCO2)NC(=O)c1ccccc1`, the pEC50 is under 3.70 and the pIC50 is under 3.70.

Turning to `O=C1CCCCCCCCCCC1CCCCCBr` (stereo not drawn), the pEC50 was under 3.70 and the pIC50 was 4.24. Turning to `O=[N+]([O-])c1ccc(C=C2C=CN(CCO)C=C2)cc1`, the pEC50 is under 3.70 and the negative-log IC50 (pIC50) was under 3.70. As for `CCOC(=O)NC(=O)c1cn(CC(=O)NCC(=O)NCC(=O)NCCCN2CCN(CCCNC(=O)CNC(=O)CNC(=O)Cn3cc(C(=O)NC(=O)OCC)c(=O)[nH]c3=O)CC2)c(=O)[nH]c1=O`, the result was inactive. Consider `O=C(O)C(=O)CC(=O)c1ccc(Cl)cc1`, for which the pEC50 is under 3.70 and the negative-log IC50 (pIC50) is under 3.70. `Cn1c(=O)oc2nc(-c3ccccc3)cc(C(F)(F)F)c21`: the pEC50 is under 3.70 and the negative logarithm of the IC50 (pIC50) is 4.72.

Turning to `NC1CSc2ccccc2NC1=O` (stereo not drawn), the pEC50 is under 3.39 and the pIC50 was under 3.39.

`CC(=O)OCC1OC(n2cc(I)c(=O)[nH]c2=O)C(OC(C)=O)C(OC(C)=O)C1OC(C)=O` (stereo not drawn): the pEC50 is under 3.36 and the negative logarithm of the IC50 (pIC50) is 3.55. In the same order, the values of `CC1(C)OC2OC(COC(=S)SSC(=S)OCC3OC4OC(C)(C)OC4C4OC(C)(C)OC34)C3OC(C)(C)OC3C2O1` (stereo not drawn) are under 3.70 and 5.25. Regarding `CN(C)C(C1=C(O)C(c2ccccc2)N(c2ccccc2)C1=O)N1CCOCC1` (stereo not drawn), the outcome was inactive. Turning to `CC1=C(Br)CC23C(C1)OC(Br)(C=CC2(C)O)C3(C)C` (stereo not drawn) (tested in a mixture with another compound), the outcome was inactive. Take `NCCn1ccc(NC(c2ccccc2)(c2ccccc2)c2ccccc2)nc1=O`: the pEC50 was under 4.04 and the pIC50 is 4.34. In the same order, the values of `O=Cn1c2ccccc2c2ccccc21` are under 3.70 and 3.77. In the same order, the values of `N#Cc1c(N)oc(-c2ccc([N+](=O)[O-])cc2)c1C#N` are under 3.70 and 4.17.

`CC1C(c2ccc3c(c2)OCO3)c2cc3c(cc2OC1N1CCCCC1)OCO3` (stereo not drawn): the pEC50 was under 3.70 and the negative logarithm of the IC50 (pIC50) was 4.47. In the same order, the values of `Cc1cc(N(CCC#N)CCC#N)ccc1/C(N=Nc1ccc(Cl)cc1)=N\NC(=O)c1cc(Cl)ccc1O` are under 3.70 and 3.99. In the same order, the values of `Cc1ccccc1NC(=O)C(=O)Cc1nc2ccccc2s1` are under 4.92 and under 4.92. In the same order, the values of `CSC(=S)N(C)NC(=O)c1cccc(C(=O)NN(C)C(=S)SC)n1` are under 3.70 and under 3.70. `CC1(CCC#N)CCC(N)=CC1=O` (stereo not drawn): the pEC50 is under 3.70 and the negative logarithm of the IC50 (pIC50) is under 3.70. `NC(CCSCCSCCC(N)C(=O)O)C(=O)O` (stereo not drawn): the pEC50 was under 5.47 and the negative logarithm of the IC50 (pIC50) was under 5.47. Consider `Cn1c(=O)c2c(nc3n2CC(=O)N3CCCCl)n(C)c1=O`, for which the pEC50 was 4.07 and the pIC50 was under 3.70. On to `CCOC(=O)C1=C(c2ccccc2)N(C(C)=O)Cc2ccccc21`, for which the pEC50 is under 4.30 and the negative logarithm of the IC50 (pIC50) was 4.55.

With `O=S(=O)(C1CCCCC1)N1N=NC2CCCCC21` (stereo not drawn), the pEC50 was under 3.70 and the negative logarithm of the IC50 (pIC50) is under 3.70.

For the molecule `O=[N+]([O-])c1ccc[c]([Sb](=[O])([OH])[OH])c1`, the pEC50 is under 3.40 and the pIC50 is under 3.70.

As for `COC(=O)C(C)(C)[C@@H]1OC(=O)N(S(=O)(=O)c2c(C)cc(C)cc2C)[C@H]1C(C)C`, the pEC50 was under 3.70 and the pIC50 is 4.30.

As for `N#CC1N(C(=O)c2ccc(F)cc2)c2ccccc2N1C(=O)c1ccc(F)cc1`, the pEC50 was under 3.70 and the negative logarithm of the IC50 (pIC50) was 4.13. For `COC(=O)C1C=CCON2CCc3c(n(C)c4ccccc34)C12` (stereo not drawn) the same measures were under 4.64 and under 4.64. In the same order, the values of `O=C1CCC(=O)N1C(c1ccccc1)(c1ccccc1)c1ccccc1` are under 3.70 and under 3.70.

Regarding `O=c1ccn(COC(COCc2ccccc2)COCc2ccccc2)c(=O)[nH]1`, the result was inactive. `O=C(O)Cc1ccccc1`: the pEC50 was under 3.70 and the pIC50 is under 3.70. Take `O=[N+]([O-])c1ccccc1SS(=O)(=O)c1ccc(Cl)cc1`: the pEC50 is under 4.10 and the pIC50 is 4.35. In the same order, the values of `Cn1c(=O)c2ncnnc2n(C)c1=O` are under 3.70 and 4.03. For the molecule `COc1cc(NS(C)(=O)=O)ccc1Nc1c2ccccc2nc2ccccc12`, the result was inactive. For the molecule `CSC(=N/N=C(\C)c1ccc(S(=O)(=O)N(C)c2ccccc2)cc1)SC`, the pEC50 is under 3.70 and the pIC50 is 4.83. Regarding `Cc1cn([C@H]2C[C@@H](N(O)C(=O)Nc3ccccc3)[C@@H](CO)O2)c(=O)[nH]c1=O`, the pEC50 is under 3.70 and the pIC50 is under 3.70. For `COc1ccc(C(O)c2nccn2C)c(OC)c1` (stereo not drawn), the pEC50 was under 3.70 and the pIC50 is under 3.70. On to `COc1ccc2ccccc2c1-c1cccc2ccccc12`, for which the pEC50 was under 3.70 and the pIC50 was 4.49. In the same order, the values of `Cc1cc2c(c(=O)o1)C1=S(SC(c3ccccc3)=C1)S2` (stereo not drawn) are 4.12 and under 3.70.

In the case of `O=C(NCc1ccccc1)c1c(O)c2ccccc2[nH]c1=O`, the pEC50 is under 3.70 and the negative-log IC50 (pIC50) is under 3.70.

Take `CSC(=NCCCCN=C(NS(=O)(=O)c1ccc(Cl)cc1)SC)NS(=O)(=O)c1ccc(Cl)cc1`: the pEC50 is under 3.70 and the pIC50 is under 3.70. As to `Cc1c(OCc2cccc3ccccc23)ccc2c(=O)cc(SCCN3CCOCC3)oc12`, the outcome was inactive. In the case of `COCC(O)COn1c(=O)c(C#N)[n+]([O-])c2ccccc21` (stereo not drawn), the pEC50 is under 3.70 and the pIC50 is 4.52. For `CCOc1ccc(Nc2nc(C)c(C(=O)CC(=O)C(=O)Nc3ccc(Cl)c(C(F)(F)F)c3)s2)cc1` the same measures were under 3.70 and under 3.70. In the same order, the values of `Oc1cc2cccc[n+]2c2cccc(Cl)c12` are under 3.70 and 4.46. For `COc1ccc(N2C(=O)C3c4[nH]c5ccc(OC)cc5c4C4CCC(c5ccccc5)CC4C3C2=O)cc1` (stereo not drawn) the same measures were under 4.00 and 4.17. In the case of `O=C(Nc1nc2ncn(CCO)c2c(=O)[nH]1)c1ccccc1`, the pEC50 is under 3.08 and the pIC50 was under 3.08. Turning to `Clc1cc(Cl)cc(Nc2nc3ccccc3nc2-c2cccs2)c1`, the pEC50 was under 5.00 and the pIC50 is under 5.00.

Turning to `c1cc(-c2cn3c(n2)SCC3)ccn1`, the pEC50 was under 3.36 and the negative-log IC50 (pIC50) was 3.74. For `COc1c(C2(c3ccc(F)cc3)SCCCS2)c(=O)c1=O`, the pEC50 is under 3.70 and the negative logarithm of the IC50 (pIC50) is under 3.70. Consider `CC(=O)OC1COC(Nc2nc(NCc3ccccc3)n(C)c(=O)c2N=O)C(OC(C)=O)C1OC(C)=O` (stereo not drawn), for which the pEC50 was under 3.70 and the pIC50 is under 3.70. Consider `Cc1ccc2nc3c(C)c(Cl)c(=O)cc-3sc2c1`, for which the pEC50 was under 4.72 and the pIC50 was 4.79. As to `CCOC(=O)C(C(CC(=O)OC)NC(=O)OCc1ccccc1)C1(C)OCCO1` (stereo not drawn), the pEC50 was under 3.60 and the pIC50 is under 3.60. In the case of `O=C(NC(=Nc1ccccc1)SCSC(=Nc1ccccc1)NC(=O)c1ccco1)c1ccco1`, the pEC50 was under 4.84 and the pIC50 is under 4.84. For `CCOC(=O)c1cc(C2(O)CCN(Cc3ccccc3)C2=O)c(-c2cc(C)no2)[nH]1` (stereo not drawn), the pEC50 was under 3.70 and the pIC50 is 4.41. In the case of `O=C(O)c1cc2ccccc2c(I)c1O`, the pEC50 was under 3.70 and the negative logarithm of the IC50 (pIC50) is 3.98.
